Measured values taken from patent publication US20230203558A1, “[…] FOR USE IN A METHOD OF DIAGNOSIS OF VIRAL INFECTION, KIT AND SYSTEM” (Original G B.V., priority 2020, published 2023).
Several values for one entry are separate records, joined by “and”; a condition that tells them apart may be missing. Equal values may be shown once. Where no end group is shown, it is not given here.

Key:
[1] = system: SARS-CoV-2; assay: Clinical samples PCR-characterized for SARS-CoV-2, relative activity on DeNIRO; conditions: peptide 20 μM; for Relative activity class, SARS-CoV-2 positive (swab): room temperature, 0-60 minutes
[2] = system: saliva proteases; assay: Cross reactivity to saliva proteases; format: biochemical; design: key: −: Not observed; +: observed
[3] = system: Rhinovirus; assay: Clinical sample, Rhinovirus positive, relative activity on DeNIRO; conditions: peptide 20 μM
[4] = target: T1, SARS-CoV-2 main protease (Severe acute respiratory syndrome coronavirus 2, UniProt P0DTD1)
[5] = system: elastase; assay: Relative activity (NIR fluorescence) of quenched peptides with control protease elastase; format: biochemical
[6] = target: T1, SARS-CoV-2 main protease; conditions: 0.1 mg/mL peptide; for Cleavage of peptide (site) by SARS-CoV-2 main protease: protease 10 μM, RP-HPLC-MS
Method: Mass spectra were acquired on a Agilent Technologies 6530 Accurate Mass Q-TOF LC/MS with an Agilent Infinity 1260/1290 HPLC. RP-HPLC was carried out using a RP-aqueous 030 analytical column, 5 uM, 150×2.0 mm [Phenomenex]. The mobile phase was A) 10 mM ammonium formate/2% v/v MeCN, pH 6.2 and B) 10 mM ammonium formate/90% v/v MeCN, pH 6.2.
The gradient used was 0.2 mL-min, 25 minutes.
0.1 mg/mL solution of each peptide in Table 3 was incubated with SARS-CoV-2 main protease (at 10 μM).

[7] = system: Mycobacterium tuberculosis
[8] = system: SARS-CoV-19 virus

| Substance | Relative activity class, SARS-CoV-2 negative (saliva) [1] | Relative activity class, SARS-CoV-2 negative (swab) [1] | Relative activity class, SARS-CoV-2 positive (saliva) [1] | Relative activity class, SARS-CoV-2 positive (swab) [1] | Cross reactivity to saliva proteases [2] | Relative activity class, Rhinovirus positive [3] | Ratio for SARS-CoV-2 main protease to elastase [4] | Relative activity, Elastase 0.2 μM ([5]; peptide concentration 5 μM) | Relative activity, Elastase 0.2 μM ([5]; peptide concentration 20 μM) | Cleavage of peptide (site) by SARS-CoV-2 main protease [6] | Relative activity class, Mycobacterium tuberculosis positive [7] | Relative activity, SARS-CoV-2 main protease 0.2 μM ([4]; pH 7.3) | Cleavage fragment ([6]; SARS-CoV-2 main protease 10 μM, 4 hours) | increase in RFU [8] |
| --- | --- | --- | --- | --- | --- | --- | --- | --- | --- | --- | --- | --- | --- | --- |
| Cy7-Ahx-[PEG1]-HQS[PEG1]K(QC1)-CONH2 [Peptide 2] | − (a relative activity of <10% indicates absence of SARS-CoV-2 (−)) | − (a relative activity of <10% indicates absence of SARS-CoV-2 (−)) | + (A relative activity of >10% indicates the presence of SARS-CoV-2 (+)) | + (A relative activity of >10% indicates the presence of SARS-CoV-2 (+)) | − | − (a relative activity of <10% indicates absence of SARS-CoV-2 (−)) | 54 | 0.1 | 0.9 | between Q-S | − (key: A relative activity of >10% indicates the presence of SARS-CoV-2 (+); a relative activity of <10% indicates absence of SARS-CoV-2 (−)) |  |  |  |
| Cy7-Ahx-AAFAA-K(QC1)-CONH2 [Peptide 3] |  |  |  |  |  |  | 0.15 | 2.2 | 87.1 | No cleavage was observed |  | 0.4 and 0.6 | NONE |  |
| Ex 1.1: fluorescently quenched peptide (TVRLQSGF) with fluorescent agent, non-fluorescent agent and cleavage site specific for a Coronavirus (also: fluorophore and quencher, sites not given here) |  |  |  |  |  |  |  |  |  |  |  |  |  | An increase in RFU is detected |
| Cy7-Ahx-[PEG1]VLQS[PEG1]K(QC1)-CONH2 [Peptide 1] | − (a relative activity of <10% indicates absence of SARS-CoV-2 (−)) | − (a relative activity of <10% indicates absence of SARS-CoV-2 (−)) | + (A relative activity of >10% indicates the presence of SARS-CoV-2 (+)) | + (A relative activity of >10% indicates the presence of SARS-CoV-2 (+)) | − | − (a relative activity of <10% indicates absence of SARS-CoV-2 (−)) | 3.5 | 7 | 8.5 | between Q-S | − (key: A relative activity of >10% indicates the presence of SARS-CoV-2 (+); a relative activity of <10% indicates absence of SARS-CoV-2 (−)) |  |  |  |
